The source of these data is patent publication US20240294491A1, “SALT OF HETEROCYCLIC COMPOUND WITH ANTI-MALARIA ACTIVITY, AND CRYSTALS THEREOF” (priority 2021, published 2024).

“And” between values parts separate entries of the source, which are not always exact repeats. Equal entries are not always repeated.

Experiment [1] relates to 3D7 strain of Plasmodium falciparum (drug-sensitive strain). The experiment can be described thus: in vitro antimalarial activity, p-LDH colorimetric protozoan growth assay, 3D7 strain. The note with it: 72 hours culture, p-LDH colorimetry, read-out: 50% protozoan-growth-inhibitory concentration (IC50 value). It is filed as cell-based. The protocol:
(§1) With use of 3D7 and K1 strains, which are a drug-sensitive strain and drug-resistant strain of Plasmodium falciparum, respectively, provided by The Tropical Disease Research Center, Kitasato University, the in vitro antimalarial activity of the compound for these plasmodia was determined. In culture of the test protozoan parasites, maintenance and subculture were performed with a partially modified version of a method by Trager and Jensen (Trager, W and Jensen, J.: Human malaria parasites in continuous culture, Science, 193:673-677, (1976)), and the resultants were used. […]
(§2) The protozoan infection rate was maintained within the range of 0.25 to 10%. Drug sensitivity test was carried out with a modified version of a method by Desjardins et al. (Desjardins, R. E., Canfield, C. J., Haynes, D. E. and Chulay, J. D.: Quantitative assessment of antimalarial activity in vitro by a semiautomated microdilution technique. Antimicrob. Agents Chemother., 16:710-718 (1979)). […] Blue formazan, a product generated through the reaction, was detected by measuring absorbance at a measurement wavelength of 660 nm by using a microplate reader to determine the presence or absence of protozoan growth by colorimetry. […]

Experiment [2] has as its system K1 strain of Plasmodium falciparum (drug-resistant strain). The experiment is described as follows: in vitro antimalarial activity, p-LDH colorimetric protozoan growth assay, K1 strain. The class given is cell-based. The note with it: K1, 72 h, read-out: 50% protozoan-growth-inhibitory concentration (IC50 value). The protocol:
as §1, §2

The subject of experiment [3] is Pf3D7^0087N9 strain of Plasmodium falciparum. The experiment is described as follows: drug efficacy evaluation with a humanized mouse malaria model. As to conditions: humanized NSG mice, oral once per day for 3 days, treatment initiated 72 hours after infection, infection rate by flow cytometry. It is filed as in vivo. The protocol: The following drug efficacy evaluation with a humanized mouse malaria model was carried out by The Art of Discovery S. L. (Vizcaya, Spain) with use of compound (I). In short, erythrocytes infected with Plasmodium falciparum were intravenously inoculated into mice with transplanted human erythrocytes, and drug treatment was initiated after the lapse of 72 hours. The therapeutic effect in terms of infection rates was evaluated by determining the proportion of infected erythrocytes in peripheral blood.
Used in the present test was a Pf3D7^0087N9 strain of Plasmodium falciparum, which was produced according to study described in Reference (1) shown below. Human erythrocytes were transplanted into female NSG (NOD-scid IL-2Rγnull) immunodeficient mice, and the proportion of human erythrocytes in all the erythrocytes in peripheral blood was maintained to be 40% or more throughout the test period. […] Specifically, 2 μL of peripheral blood collected from an infected mouse was stained with TER-119-Phycoeruthrine (mouse erythrocyte marker) and SYTO-16 (dye for nucleic acid staining), and analyzed by flow cytometry. […] 2008 May 21; 3(5):e2252. • (2) Jimenez-Diaz et al. Quantitative measurement of Plasmodium-infected erythrocytes in murine models of malaria by flow cytometry using bidimensional assessment of SYTO-16 fluorescence. […]
A general note: Flow cytometry measures light scatter and fluorescence of single cells or particles in a stream.

Take `C[C@@H](Oc1ccc(CNC(=O)c2cc(-n3cnc(C(F)(F)F)n3)c(N)nc2N)cc1)C(F)(F)F` [compound (I), 2,6-diamino-5-[3-(trifluoromethyl)-1H-1,2,4-triazol-1-yl]-N-(4-{[(2R)-1,1,1-trifluoropropan-2-yl]oxy}benzyl)pyridine-3-carboxamide]: the IC50 in experiment [1] is 0.026 µg/mL and 53 nM; in experiment [2], 0.043 µg/mL and 89 nM. In addition, in experiment [3], the “ED90 (daily dose with which the infection rate on day 7 after the infection decreased by 90% from that in a nontreatment group)” value amounted to 3.2 mg/kg/day.
